# How the values were obtained:
# Format in all cases: physicochemical
# [1] = Crystal formation on storage at 4° C., autoclaved vs non-autoclaved (reheated samples)
# Method: Sixteen samples of etanidazole solutions at various pHs, which contained crystals, were heated in a 56° C. water bath for 1 hour to dissolve the crystals. After heating, the samples were divided evenly.
# [2] = Effect of ionic strength on rate of decomposition in 0.1M acetate, pH 5.0, 80° C.
# Method: The k values shown in Tables 1-5 and FIG. 1 should be multipled by a factor of 2.303 to provide the actual k value.
# The chemical stability of etanidazole was evaluated in solutions of varying composition stored at 80° C. Etanidazole was placed into suitable containers and sufficient buffer was added to result in a 1 mg/ml solution. A constant ionic strength of 0.3 was maintained with potassium chloride. All solutions were prepared in triplicate. The solution was divided into 2 ml sealed glass vials and was placed into cardboard storage boxes to protect the compound from light. At appropriate intervals, samples were removed from the stability chamber and cooled to room temperature. An aliquot of the sample was diluted with mobile phase containing internal standard prior to HPLC analysis. For those pH conditions where degradation was rapid, the sample aliquot was immediately quenched to neutral pH and room temperature.
# Data were analyzed using methods as described by Martin et al. in "Physical Pharmacy", 3rd ed, pp 352-395 (1983).
# The impact of the ionic strength of the buffer system on the rate of decomposition was examined in 0.1M acetate, pH 5.0, at 80° C. Ionic strengths of 0.15, 0.30 and 0.60 were employed.
# [3] = Effects of additives on apparent solubility / crystallization of etanidazole solutions; settings: for time to formation of crystalline material: excess or 150 mg/ml
# Method: The effects of additives on the apparent solubility of etanidazole were evaluated. […] Possible effects of additives are to inhibit the crystallization of etanidazole hydrate and to solubilize etanidazole hydrate.
# Solutions were mixed by rotating end-to-end for 72 hours at room temperature. […] These were placed in 4° C. storage. […] In the case of solutions containing 1% ethanolamine or 0.1% diethanolamine as additives and excess or 150 mg/ml etanidazole, crystalline material had found within 24 hours at room temperature, but the 50 mg/ml and 100 mg/ml solutions remained clear at room temperature for 72 hours. These samples were placed at 4° C. […] After 2 months at 4° C., 1 of the 3 vials remained free of crystals. The 50 mg/ml etanidazole solution with 0.1% diethanolamine remained clear for at least 2 months at 4° C.
# [4] = Effect of autoclaving on crystal formation at 4° C. over 43 days, pH 3.0, 3.5 and 4.0; settings: for samples that developed crystals: 50 mg/ml
# Method: Further studies were done in which etanidazole (50 mg/ml) solutions at pH 3.0, 3.5, and 4.0 were prepared and the effect of autoclaving was evaluated. At pH 3.0, 0 of 48 autoclaved samples and 0 of 48 non-autoclaved samples developed crystals when stored at 4° C. over 43 days. At pH 3.5, 0 of 49 autoclaved samples developed crystals, and 3 of 50 non-autoclaved samples developed crystals when stored at 4° C. over 43 days. At pH 4.0, 0 of 50 autoclaved samples developed crystals when stored at 4° C. for 43 days, but 1 of 50 non-autoclaved samples developed crystals.
compound,measurement,setting,value
O=C(Cn1ccnc1[N+](=O)[O-])NCCO [Etanidazole],crystalline particulates on storage,"[1]; 50 mg/ml, aqueous buffer, 4° C.",occasionally develop crystalline particulates
same,non-autoclaved samples containing crystals again,"[1]; various pHs, heated 56° C. 1 hour, then 4 days at 4° C.",3 of 8
same,effect of ionic strength on degradation rate,"[2]; 0.15, 0.30 and 0.60, 0.1M acetate pH 5.0, 80° C.",negligible effect on the degradation rate
same,"kobs, observed first-order rate constant","[2]; ionic strength 0.15, 0.1M acetate pH 5.0, 80° C.",0.0059 ± 0.000108 day⁻¹
same,"kobs, observed first-order rate constant","[2]; ionic strength 0.30, 0.1M acetate pH 5.0, 80° C.",0.00516 ± 0.000104 day⁻¹
same,"kobs, observed first-order rate constant","[2]; ionic strength 0.60, 0.1M acetate pH 5.0, 80° C.",0.00518 ± 0.000306 day⁻¹
same,time solution remained clear,"[3]; 0.1% diethanolamine, 50 mg/ml, 4° C.",at least 2 months
same,time solution remained clear,"[3]; 0.1% diethanolamine, 50 mg/ml, room temperature",72 h
same,vials that remained free of crystals,"[3]; 0.1% diethanolamine, 100 mg/ml, 4° C., after 2 months",1 of the 3
same,vials showing crystallization,"[3]; 0.1% diethanolamine, 100 mg/ml, 4° C., within 24 hours",1 of 3
same,time solution remained clear,"[3]; 0.1% diethanolamine, 100 mg/ml, room temperature",72 h
same,time to formation of crystalline material,"[3]; 0.1% diethanolamine, room temperature",≤ 24 h
same,time solution remained clear,"[3]; 1% ethanolamine, 50 mg/ml, 4° C.",at least 1 month
same,time solution remained clear,"[3]; 1% ethanolamine, 50 mg/ml, room temperature",72 h
same,time to crystallization,"[3]; 1% ethanolamine, 100 mg/ml, 4° C.",≤ 24 h
same,time solution remained clear,"[3]; 1% ethanolamine, 100 mg/ml, room temperature",72 h
same,time to formation of crystalline material,"[3]; 1% ethanolamine, room temperature",≤ 24 h
same,solid form of excess solid,"[3]; 1% imidazole and excess etanidazole, 72 hours, room temperature",appeared to have been converted to etanidazole hydrate
same,time solution remained clear,"[3]; 1% imidazole, 50 mg/ml, 4° C. (up to)",up to 1 month
same,time solution remained clear,"[3]; 1% imidazole, 100 mg/ml, 4° C. (up to)",up to 1 month
same,time to crystal formation,"[3]; 1% imidazole, 150 mg/ml, 4° C.",≤ 2 h
same,appearance of solution,"[3]; 1% imidazole, up to 150 mg/ml etanidazole, room temperature, 72 hours",remained clear and free of particulates
same,effect of additives on etanidazole solutions,"[3]; imidazole, ethanolamine, diethanolamine, room temperature or 4° C.","these additives stabilize etanidazole solutions, inhibiting crystal formation"
same,samples that developed crystals,"[4]; pH 3.0, autoclaved, 4° C. over 43 days",0 of 48
same,samples that developed crystals,"[4]; pH 3.0, non-autoclaved, 4° C. over 43 days",0 of 48
same,samples that developed crystals,"[4]; pH 3.5, autoclaved, 4° C. over 43 days",0 of 49
same,samples that developed crystals,"[4]; pH 3.5, non-autoclaved, 4° C. over 43 days",3 of 50
same,samples that developed crystals,"[4]; pH 4.0, autoclaved, 4° C. for 43 days",0 of 50
same,samples that developed crystals,"[4]; pH 4.0, non-autoclaved, 4° C., 43 days",1 of 50
same,effect of autoclaving on crystal formation,[4]; subsequent storage at 4° C.,autoclaving prevents the formation of crystals
